Columns and labels:
[1] = molecular target: T1, CRACM1/STIM1-CHOK1 (Homo sapiens, UniProt Q96D31); assay: Patch clamp inhibition of ICRAC current in CRACM1/STIM1-CHOK1 cells; type: cell-based; conditions: at 500 nM, activity class
T1 construct: Full length human Stim1, CracM1, CracM2 and CracM3 cDNA; Stim1 induced with doxycycline
Experimental: Manual patch clamp experiments are conducted in the tight-seal whole-cell configuration at room temperature (21-25° C.). Patch pipettes are fashioned from borosilicate glass capillary tubes and have resistances between 2-4 MO after filling with standard intracellular solution. High resolution current recordings are acquired with a computer-based patch clamp amplifier system (EPC-10, HEKA, Lambrecht, Germany). All voltages are corrected for a liquid junction potential of 10 mV between external and internal solutions with glutamate as the intracellular anion. Currents are filtered at 2.9 kHz and digitized at 10 μs intervals. Capacitive currents and series resistance are determined and corrected before each voltage ramp using the automatic capacitance compensation of the EPC-10.
In general, a whole cell patch clamp method is used to examine the effects of a compound of the invention on a channel(s) that mediates ICRAC. In such experiments, a baseline ICRAC measurement is established within the first 70 voltage ramps, or 140 seconds, for a patched cell. Then the cells are perfused with the compound to be tested and the effect of the compound on ICRAC is measured for at least an additional 440 to 500 seconds. A compound that modulates ICRAC (e.g., inhibits) is a compound that is useful in the invention for modulating CRAC ion channel activity.
Each compound is diluted from a 10 mM stock in series using DMSO. The final DMSO concentration is always kept at 0.1%.
ICRAC currents are measured using 50 msec voltage ramps between −100 mV to +100 mV. The voltage ramps are stimulated every 2 seconds for the first 70 sweeps, then every 5 seconds for the remainder of the experiment. The membrane potential is held at 0 mV between the test ramps. In a typical experiment, the peak inward currents will develop within 50-100 seconds. Once the ICRAC current is stabilized, the cells are perfused with a test compound in the extracellular solution for at least an additional 500 seconds.
Off-line analysis with the Heka PatchMaster software is used to separate the ICRAC membrane current from the cells basal background currents. In a typical recording, InsP3 stimulated ICRAC currents begin to develop in 6 to 12 seconds after whole cell is established. Therefore, the first 1-4 voltage ramps represent the basal membrane currents in the absence of ICRAC and the average value is subtracted from all subsequent traces. The current value at −80 mV for each ramp trace is then measured and plotted against time. The resulting current versus time data is exported into a Microsoft Excel spreadsheet. The % ICRAC inhibition in each cell is calculated by comparing the amount of current just prior to the compound perfusion to the amount of current after the cells has been perfused with the compound for 440-500 seconds. The IC50 value and Hill coefficient for each compound is estimated by fitting all the individual data points to a single-site Hill equation.
TREx™-CHO cells were transfected with human Stim1 (recombinant DNA in pcDNA4/TO/myc-His™ A with a myc epitope tag in the N-terminal) and either CracM1, CracM2 or CracM3 (recombinant DNA in pcDNA 3.1 with a HA epitope tag in the N-terminal). Stably expressing cells were selected by growing the transfected cells in antibiotics for two to three weeks. Individual cell clones were isolated via serial dilution. […]

[2] = tested on: IL-2; assay: Inhibition of IL-2 production (Jurkat cells activated with PHA, ELISA); type: cell-based; conditions: Homo sapiens, Jurkat, Jurkat/PHA/1% FBS; activity class
Experimental: Jurkat cells were placed in a 96 well plate (0.5 million cells per well in 1% FBS medium), and then a test compound of this invention was added at different concentrations. After 10 minutes, the cells were activated with PHA (final concentration 2.5 μg/mL) and incubated for 20 hours at 37° C. under 5% CO2. The final volume was 200 μL. Following incubation, the cells were centrifuged, and the supernatants collected and stored at −70° C. prior to assaying for IL-2 production. A commercial ELISA kit (IL-2 Eli-pair, Diaclone Research, Besancon, France) was used to detect production of IL-2, from which dose response curves were obtained. The IC50 value was calculated as the concentration at which 50% of maximum IL-2 production after stimulation was inhibited versus a non-stimulation control.

T1 sequence (Q96D31 whole entry): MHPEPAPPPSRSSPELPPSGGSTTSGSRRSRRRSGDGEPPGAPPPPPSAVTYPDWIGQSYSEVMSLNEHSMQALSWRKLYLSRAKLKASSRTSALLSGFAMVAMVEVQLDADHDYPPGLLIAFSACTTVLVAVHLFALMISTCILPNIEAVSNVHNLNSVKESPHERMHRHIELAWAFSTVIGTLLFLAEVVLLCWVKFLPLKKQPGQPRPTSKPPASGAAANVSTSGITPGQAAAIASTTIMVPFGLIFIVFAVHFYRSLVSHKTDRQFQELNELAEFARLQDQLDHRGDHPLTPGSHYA

Row | inhibition at 0.5 µM [1] [%] | IC50 [2] [nM] | Compound
1 | 50 to 70 | < 50 | CC1=C(c2ccc(NC(=O)c3ccncc3C)cc2)CN(c2nccnc2Cl)CC1 [Compound 14, N-(4-(1-(3-chloropyrazin-2-yl)-4-methyl-1,2,5,6-tetrahydropyridin-3-yl)phenyl)-3-methylisonicotinamide]
2 | 50 to 70 | < 50 | CC1=C(c2ccc(NC(=O)c3ccncc3F)cc2)CN(c2nccnc2Cl)CC1 [Compound 15, N-(4-(1-(3-chloropyrazin-2-yl)-4-methyl-1,2,5,6-tetrahydropyridin-3-yl)phenyl)-3-fluoroisonicotinamide]

Reference: patent US20120183579A1, “COMPOUNDS FOR INFLAMMATION AND IMMUNE-RELATED USES” (Synta Pharmaceuticals Corp., priority 2008, published 2012)
